Test results published in US20090326008A1, “NF-kappa B Inhibitor” (priority 2006, published 2009).

How the values were obtained:
Assay type in all cases: cell-based, human
[1] = system: COX2; experiment: Relative COX2 mRNA expression in IL-1β-stimulated MKN-45 cells (real-time PCR); details: IL-1β-stimulated DMSO-treated cells = 100%, ACTB reference
Description: (§1) RNA was extracted from the cells used in Example 2 according to the manufacturer's protocol for ABI Prism 6100 Nucleic Acid PrepStation (a nucleic acid isolation system, product of Applied Biosystems). More specifically, after removal of the culture supernatant and washing with 1 mL of PBS, 250 μL of Nucleic Acid Purification Lysis Solution (Part No. 4305895, Applied Biosystems) was added, and then agitated using a shaker for 2 to 3 minutes. The Lysis Solution containing the cell lysate was collected, and the total amount was transferred to the wells of RNA Purification Tray (Part No. 4305673, Applied Biosystems), which had been pre-wet with 40 μL of Nucleic Acid Purification Wash Solution I (Part No. 4305891, Applied Biosystems) beforehand. Aspiration (20% pressure) was performed for 2 minutes to adsorb the sample onto the RNA Purification Tray, followed by sequentially adding and aspirating (20% pressure, 2 min.) 500 μL of Wash Solution I, Nucleic Acid Purification (Part No. 4305891, Applied Biosystems), 400 μL of Wash Solution II, Nucleic Acid Purification (Part No. 4305890, product of Applied Biosystems), 400 μL of the Wash Solution II, and 300 μL of the Wash Solution II in that order. Aspiration (90% pressure) was performed for 5 minutes to remove the water content from the RNA Purification Trays. After addition of 150 μL of Elution Solution, Nucleic Acid Purification (Part No. 4305893, product of Applied Biosystems), aspiration (20% pressure) was performed for 2 minutes, while collecting the outflow. This was used as collected RNA solution.
(§2) Absorbance of the collected RNA solution at 260 nm was measured using a microplate spectrophotometer (“SpectraMax Plus”, product of Molecular Devices) with an analysis software (“SOFTmaxPRO ver.3.1.2”, product of Molecular Devices), and the RNA concentration was determined from the absorbance. Likewise, absorbance at 280 nm was measured and the purity of the RNA was determined using the analysis software.
(§3) cDNA was synthesized according to the manufacturer's protocol for TaqMan® Reverse Transcription Reagents (Part No. N808-0234, product of Applied Biosystems). More specifically, about 0.5 μg of RNA, 2.5 μL of 10×RT buffer, 5.5 μL of MgCl2 solution, 5 μL of dNTP mixture, 1.25 μL of random hexamer (primers), 0.5 μL of RNase inhibitor, and 0.63 μL of MultiScribe Reverse Transcriptase (product of Applied Biosystems) were added to each collected RNA sample in a tube, and DEPC-treated water was added to make a total volume of 25 μL and stirred. A reaction consisting of 25° C. for 10 minutes, 48° C. for 30 minutes, and 95° C. for 5 minutes was performed using a PCR thermal cycler (“TaKaRa PCR Thermal Cycler Dice”, product of Takara Bio Inc.) to prepare a cDNA solution.
(§4) PCR was performed according to the manufacturer's protocol for TaqMan® Gene Expression Assays (product of Applied Biosystems). More specifically, 5 μL of TaqMan® Fast Universal PCR Master Mix (product of Applied Biosystems), 0.5 μL of TaqMan® Gene Expression Assays for the target gene (gene-specific probe and primer sets, product of Applied Biosystems), and 4.5 μL of the above-obtained cDNA solution were added to each sample and stirred. A PCR reaction consisting of heating at 95° C. for 20 seconds, followed by 40 cycles consisting of heating at 95° C. for 3 seconds and annealing and extension at 60° C. for 30 seconds was performed using a real-time PCR device (“Applied Biosystems 7500 Real-Time PCR System”) with SDS v1.4 Software (product of Applied Biosystems). Threshold cycle (Ct) values were calculated using the software.
(§5) The Assay IDs of the TaqMan® Gene Expression Assays for the target genes used are as follows:
(§6) The expression level of each gene was determined according to the following formula using the level of ACTB as a reference standard.
(§7) (Relative mRNA expression level)=2̂−{(Ct value of the target gene)−(Ct value of ACTB)} […]

[2] = system: NF-κB; experiment: NF-kappaB reporter assay (pNF-kappaB-SEAP) in IL-1β-stimulated MKN-45 cells; details: IL-1β 2 ng/mL for 6 hours, DMSO (0.05%) control = 1.00, triplicate
Description: pNF-kappaB-SEAP was obtained from Clonetech Laboratories Inc.
Cryopreserved MKN-45 cells (product of JCRB (Japanese Collection of Research Bioresources)) were thawed and cultured in a standard medium in an incubator (37° C., 5% CO2). Every three to five days, the cells were recovered by treatment with Trypsin-EDTA, then adequately diluted and subcultured. MKN-45 cells subcultured two or more times with a survival rate of 95% or more were used in each experiment.
The subcultured MKN-45 cells were harvested using Trypsin-EDTA solution, and the number of viable cells was counted. The cells were suspended in a standard medium to yield a 1.5×10^5 cells/mL suspension. A 24-well plate was seeded with 500 μL/well of the cell suspension, and the cells were cultured in an incubator (37° C., 5% CO2).
The day after seeding, transfection was performed according to the following protocol.
(4.1) Preparation of Plasmid Solution 4 μL of 0.1 μg/μL pNFkappaB-SEAP was placed into each well and diluted with 50 μL of OPTI-MEM I (product of Invitrogen Japan K.K.) by mixing by inversion.
1 μL of Lipofectamine 2000 reagent (product of Invitrogen) was placed into each well and diluted with 50 μL of OPTI-MEM I (product of Life Technologies Inc.) by mixing by inversion. The mixture was allowed to stand at room temperature for 5 to 10 minutes to prepare a Lipofectamine dilution.
The plasmid solution and the Lipofectamine dilution were mixed by inversion and allowed to stand at room temperature for 20 to 30 minutes to prepare a transfection mixture.
The culture medium was removed from the 24-well plate by suction. While care was taken not to dry the subcultured MKN-45 cells, the inner surface of the wells was washed with 1 mL/well of PBS. After the medium was replaced with 500 μL/well of OPTI-MEM I (product of Life Technologies Inc.), 100 μL/well of the transfection mixture was added, and the cells were cultured in a incubator (37° C., 5% CO2). After about 5 hours of incubation, the medium was replaced with a standard medium, and the cells were further cultured in a CO2 incubator (37° C., 5% CO2) until the following day.
On the following morning, the culture medium supernatant was removed by suction and replaced with 1 mL/well of the test compound solution or control solution diluted with a standard medium. The cells were cultured in a CO2 incubator (37° C., 5% CO2) for 1 hour. Each experiment was performed in triplicate.
200 ng/mL IL-1β was added in an amount of 10 μL/well (final concentration: 2 ng/mL), and the cells were cultured in a CO2 incubator (37° C., 5% CO2) for 6 hours.
A reporter assay was performed using Reporter Assay Kit-SEAP (product of Toyobo Co.) according to the manufacturer's protocol.
More specifically, 500 μL of the culture broth was transferred into a tube and centrifuged at 15,000 rpm for 5 minutes at 4° C. The supernatant was transferred into a 96-well white plate. The positive control included in the Reporter Assay Kit-SEAP, and a standard medium as a blank control were each added in an amount of 20 μL/well to the 96-well white plate. Further, an inhibitor for inhibiting the AP activity of the MKN-45 cells was added in an amount of 20 μL/well. After sealing the plate, the contents were mixed well. The plate was placed into a CO2 incubator (37° C., 5% CO2) and allowed to stand for 30 minutes. Subsequently, the plate was allowed to stand on ice for 1 minute, followed by addition of 160 μL/well of Lumi-Phos Plus (a chemiluminescent substrate, product of Lumigen Inc.). The plate was sealed again and placed in a light-shielded state into a CO2 incubator (37° C., 5% CO2). After the plate was allowed to stand for 15 to 30 minutes, luminescence was measured for about 5 to about 10 seconds using a luminometer.
The results of the reporter assay were expressed as Percent Control (or Inhibition), calculated according to the following formulae. The luminescence of each sample was calculated by subtracting the average of blank samples.

[3] = system: IL-8; experiment: Relative IL-8 mRNA expression in IL-1β-stimulated MKN-45 cells (real-time PCR); details: IL-1β-stimulated DMSO-treated cells = 100%, ACTB reference
Description: as §1, §2, §3, §4, §5, §6, §7

[4] = system: TNFα; experiment: Relative TNFα mRNA expression in IL-1β-stimulated MKN-45 cells (real-time PCR); details: IL-1β-stimulated DMSO-treated cells = 100%, ACTB reference
Description: as §1, §2, §3, §4, §5, §6, §7

| Structure (SMILES) | COX2 relative mRNA expression level, Mean [1] [%] | NF-kappaB reporter (SEAP luminescence) IL-1b(+) mean, relative to control [2] | IL-8 relative mRNA expression level, Mean [3] [%] | TNFa relative mRNA expression level, Mean [4] [%] |
| --- | --- | --- | --- | --- |
| CCNC(=O)CCCN1C(=O)CCc2c(CC3SC(=O)NC3=O)ccc(OC)c21 (stereo not shown) [Test Compound 613] | 112.4 | 0.86 | 91.5 | 94.0 |
| COc1ccc(CC2SC(=O)NC2=O)c2c1N(Cc1ccc(OCc3ccccc3)cc1)C(=O)CC2 (stereo not shown) [Test Compound 127] | 31.0 | 0.60 | 44.8 | 49.8 |
| COc1ccc(CC2SC(=O)NC2=O)c2c1N(Cc1ccc(NC(=O)Oc3ccc(C)cc3)cc1)C(=O)CC2 (stereo not shown) [Test Compound 233] | 24.9 | 0.85 | 30.4 | 28.9 |
| COc1ccc(CC2SC(=O)NC2=O)c2c1N(Cc1ccc(C#N)cc1)C(=O)CC2 (stereo not shown) [Test Compound 125] | 29.2 | 0.55 | 45.4 | 52.5 |
| CCCCCOC(=O)Nc1ccc(CN2C(=O)CCc3c(CC4SC(=O)NC4=O)ccc(OC)c32)cc1 (stereo not shown) [Test Compound 232] | 29.9 | 0.71 | 33.8 | 28.9 |
| O=C1NC(=S)SC1Cc1ccc2c(c1)CCC(=O)N2Cc1ccc(-c2ccccc2)cc1 (stereo not shown) [Test Compound 995] | 28.1 | 0.66 | 38.3 | 29.3 |
| COc1ccc(CC2SC(=O)NC2=O)c2c1N(CC(=O)Nc1ccc(C(F)(F)F)cc1)C(=O)CC2 (stereo not shown) [Test Compound 612] | 33.4 | 0.67 | 41.8 | 31.1 |
| COc1ccc(CC2SC(=S)NC2=O)c2c1N(Cc1ccc(C(C)(C)C)cc1)C(=O)CC2 (stereo not shown) [Test Compound 914] | 32.9 | 0.53 | 61.9 | 66.7 |
| O=C1NC(=O)C(Cc2cccc3c2CCC(=O)N3c2ccccc2)S1 (stereo not shown) [Test Compound 150] | 53.7 | 0.71 | 52.0 | 53.9 |
| CC(C)(C)OC(=O)N1CCC(CCN2C(=O)CCc3c(CC4SC(=O)NC4=O)cccc32)CC1 (stereo not shown) [Test Compound 159] | 27.7 | 0.64 | 34.0 | 33.5 |
| COc1ccc(CC2SC(=O)NC2=O)c2c1N(CC1CCN(c3ccc(C)cc3)CC1)C(=O)CC2 (stereo not shown) [Test Compound 164] | 21.7 | 0.78 | 24.8 | 30.0 |
| COc1ccc(CC2SC(=S)NC2=O)c2c1N(Cc1ccc3ccccc3c1)C(=O)CC2 (stereo not shown) [Test Compound 971] | 30.8 | 0.56 | 55.9 | 63.4 |
| COc1ccc(OC(=O)Nc2ccc(CN3C(=O)CCc4c(CC5SC(=O)NC5=O)ccc(OC)c43)cc2)cc1 (stereo not shown) [Test Compound 237] | 25.9 | 0.57 | 25.9 | 26.2 |
